Reference: paper PMC3938192 (ACS chemical biology, 2013)
Where a chain is given by its changes, count along the chain named.

Legend:
Format in all cases: cell-based
Pkd1-AS2 (M665A) = target: T1, Pkd1-AS2 (M665A) (Mus musculus, UniProt Q62101, M665A); experiment: Pkd1-AS2 autophosphorylation in transfected HEK 293T cells; conditions: 1 µM
T1 sequence (Q62101 1-918 M665A): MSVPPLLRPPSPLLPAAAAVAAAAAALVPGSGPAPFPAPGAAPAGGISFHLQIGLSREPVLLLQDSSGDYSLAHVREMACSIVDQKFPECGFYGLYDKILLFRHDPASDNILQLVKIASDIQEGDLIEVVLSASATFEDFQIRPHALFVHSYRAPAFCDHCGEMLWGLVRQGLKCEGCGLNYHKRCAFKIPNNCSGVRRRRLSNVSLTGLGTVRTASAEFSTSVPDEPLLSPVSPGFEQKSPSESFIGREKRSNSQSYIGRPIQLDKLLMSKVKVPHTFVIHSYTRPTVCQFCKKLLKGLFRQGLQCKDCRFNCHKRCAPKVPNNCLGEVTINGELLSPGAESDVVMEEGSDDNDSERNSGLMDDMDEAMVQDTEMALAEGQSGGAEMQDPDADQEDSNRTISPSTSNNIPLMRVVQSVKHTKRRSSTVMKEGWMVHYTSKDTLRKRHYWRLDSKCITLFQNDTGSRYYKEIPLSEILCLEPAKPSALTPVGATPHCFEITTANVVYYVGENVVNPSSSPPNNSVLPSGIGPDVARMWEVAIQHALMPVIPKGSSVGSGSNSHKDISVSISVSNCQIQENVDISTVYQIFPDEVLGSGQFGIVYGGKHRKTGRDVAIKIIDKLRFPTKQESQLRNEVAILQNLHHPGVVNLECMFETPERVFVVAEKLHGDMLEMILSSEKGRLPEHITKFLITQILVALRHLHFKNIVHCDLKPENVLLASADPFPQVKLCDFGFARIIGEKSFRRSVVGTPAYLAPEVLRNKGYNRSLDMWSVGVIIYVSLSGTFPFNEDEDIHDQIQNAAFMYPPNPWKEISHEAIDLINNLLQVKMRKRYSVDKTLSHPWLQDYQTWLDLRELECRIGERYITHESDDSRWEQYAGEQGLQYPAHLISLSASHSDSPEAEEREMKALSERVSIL

Pkd1-WT = target: T2, Pkd1-WT (Mus musculus, UniProt Q62101); experiment: Pkd1-WT autophosphorylation in transfected HEK 293T cells; conditions: 1 µM
T2 sequence (Q62101 1-918): T1 sequence (Q62101 1-918 M665A) with A665M

Venus-Pkd1-AS2 = target: T3, Venus-Pkd1-AS2 (Mus musculus, UniProt Q62101, M665A); experiment: Puncta formation of Venus-Pkd1-AS2 in neurons; conditions: 1 µM, one hour of inhibitor treatment
T3 sequence (Q62101 1-918 M665A): T1 sequence (Q62101 1-918 M665A)

Venus-Pkd1-WT = target: T4, Venus-Pkd1-WT (Mus musculus, UniProt Q62101); experiment: Puncta formation of Venus-Pkd1-WT in neurons; conditions: 1 µM, one hour of inhibitor treatment
T4 sequence (Q62101 1-918): T1 sequence (Q62101 1-918 M665A) with A665M

## CC(C)(C)n1nc(-c2cccc3ccccc23)c2c(N)ncnc21 [1NA-PP1]
Pkd1-AS2 (M665A)
  effect on autophosphorylation by Pkd1-AS2: completely abrogates autophosphorylation
Pkd1-WT
  effect on autophosphorylation by Pkd1-WT: but not the wild type kinase
Venus-Pkd1-AS2
  puncta formation, Venus-Pkd1-AS2 neurons: forming discrete puncta
Venus-Pkd1-WT
  puncta formation, Venus-Pkd1-WT neurons: unaffected
